In PubChem BioAssay AID2060882 (Molecular Pharmacology Branch, DTP, NCI, 2025) one finds viability, T/C and IC50 data, which are given here for eleven molecules.

Usually viability, T/C stands for the result in the treated group divided by that in the control group, in per cent. Usually IC50 stands for the concentration that gives 50% inhibition.

In the experiment the test system is 898857-211-R-J1-PDC complex spheroids, growth % test/control. Description: Anticancer human tumor 898857-211-R-J1-PDC patient-derived melanoma cell line growth inhibition [RAS]. Particulars: for viability, T/C: stronger effect = lower value; for IC50: curve of compound. From the text: RAS pathway inhibitors in Combinations in Complex Spheroids
A high-throughput screen of multi-cell type tumor spheroids was designed to identify active combinations of RAS pathway inhibitors and targeted small molecules. Complex spheroids include a stromal component modeled by human endothelial cells (HUVEC) and fibroblasts modeled by human mesenchymal stem cells (MSCs). The concentration ranges selected for each drug and investigational agent were based upon clinically achievable concentrations if the clinical Cmax of the agent was known.
Compounds. The drugs and investigational agents: abemaciclib (NSC768073), cobimetinib (NSC768068), divarasib (GDC6063, NSC841802), docetaxel (NSC628503), GDC-1971 (RLY-1971, NSC841576), gemcitabine (NSC613327), inavolisib (NSC800729), ipatasertib (NSC767898), KB-0742 (NSC834161), MRTX-1133 (NSC836407), osimertinib (NSC779217), RMC-4630 (NSC839698), RMC-6236 (NSC851965), RMC-6291 (NSC852671), Ro-3306 (NSC812927), sapanisertib (NSC764658), SN-38 (NSC673596), staurosporine (NSC755774), SY5609 (NSC837396), and tovorafenib (DAY101, NSC766906), were obtained from the National Cancer Institute (NCI) Developmental Therapeutics Program Chemical Repository. The FDA-approved anticancer drug set is available from the NCI Developmental Therapeutics Program. […] The stock solutions were prepared in dimethyl sulfoxide (DMSO, Sigma-Aldrich, St. Louis, MO, cat. D2650) at 800-fold the tested concentration and stored at -70 degrees C prior to their use. All drugs and investigational agents were tested over a range starting from a high concentration at or near the clinical Cmax and decreasing in half-log increments. If the clinical Cmax for an agent had not been determined, the highest concentration tested was 10 microM.
Cell Culture. All cells were maintained in an incubator at 37 degrees C and 5% CO2 with 95% humidity. The PDC lines were cultured according to standard operating procedures established by the NCI PDMR. All PDCs were thawed and cultured in Matrigel-coated flasks prepared with a working solution of 1X Ham's F-12 nutrient mix, without supplementation (Invitrogen, Waltham, MA, cat. 11765054), 100 U/mL penicillin-streptomycin (Invitrogen, cat. 15140122), and 2.5% Matrigel (Corning Inc., Corning, NY, cat. 354248) for the first three passages. The 362531-283-R-J2-PDC and 782815-120-R-J1-PDC lines were cultured in 6C/Colon 1B media, which includes advanced DMEM/F-12 (Thermo Fisher Scientific, cat. 12634028), 10 mM HEPES (Thermo Fisher Scientific, cat. 15630080), 1X GlutaMAX supplement (Thermo Fisher Scientific, cat. 35050061), 0.1 mg/mL primocin (InvivoGen, San Diego, CA, cat. ant-pm-2), 10% defined fetal bovine serum, heat inactivated (HyClone Laboratories Inc., Logan, UT, cat. SH30070.03HI), 50% L-WRN conditioned media (ATCC, cat. CRL-3276), 1.25 mM N-Acetyl-L-cysteine (Sigma-Aldrich, cat. A9165), 10 mM nicotinamide (Sigma-Aldrich, cat. N0636), 1X B-27 supplement (Thermo Fisher Scientific, cat. 17504044), 1X N-2 supplement (Thermo Fisher Scientific, cat. 17502048), 50 ng/mL human EGF (Thermo Fisher Scientific, cat. PHG0311), and 10 microM Y-27632 dihydrochloride (Tocris Bioscience, cat. 1254). The K12877-001-R-J1-PDC line was cultured in 6I media, which includes all 6C/Colon 1B media plus 10 ng/mL human FGF-10 (PeproTech, cat. 100-26), 1 ng/mL human FGF-2 (PeproTech, cat. 100-18B), 1 µM prostaglandin E2 (Tocris Bioscience, cat. 2296), […] hydrocortisone (Sigma-Aldrich, cat. H4001), and […] bovine insulin (Sigma-Aldrich, cat. I6634). The K86415-001-R-J1-PDC line was cultured in 6D media, which includes all 6C/Colon 1B media components minus the L-WRN conditioned media. The 485176-168-R4-J1-PDC was cultured in PANC media, which includes all 6C/Colon 1B media plus 100 ng/mL human FGF-10 (PeproTech, cat. 100-26), 500 nM SB-431542 (Selleckchem, cat. S1067), and 10 nM gastrin (Tocris Bioscience, cat. 3006). […]

Values joined by “and” are separate entries in the source; they are usually repeats but may differ in a detail not shown here. Equal values may be shown once.
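Further: spheroids exposed to compound for seven days before readout.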
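Wherever viability, T/C is given: 100% = DMSO vehicle control wells.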

Turning to `C#Cc1c(F)ccc2cc(O)cc(-c3ncc4c(N5CC6CCC(C5)N6)nc(OCC56CCCN5CC(F)C6)nc4c3F)c12` (stereo not drawn), the viability, T/C is 105% [middle of 8 runs] (compound 0.0316 µM); 111% [middle of 8 runs] (compound 0.1 µM); 108% [middle of 8 runs] (compound 0.316 µM); 109% [middle of 8 runs] (compound 1 µM); 103% [middle of 8 runs] (compound 3.16 µM); 50.8% [middle of 8 runs] (compound 10 µM).
Take `CC(=O)OC12COC1CC(O)C1(C)C(=O)C(O)C3=C(C)C(OC(=O)C(O)C(NC(=O)OC(C)(C)C)c4ccccc4)CC(O)(C(OC(=O)c4ccccc4)C21)C3(C)C` (stereo not drawn): the IC50 was below 31.6 nM. Moreover, the viability, T/C (compound 0.0316 µM) is 13% [middle of 4 runs]. Moreover, for the setting “compound 0.1 µM”, the viability, T/C was 13% [middle of 4 runs]. For the same molecule, the viability, T/C (compound 0.316 µM) is 13.3% [middle of 4 runs]. Also, the viability, T/C (compound 1 µM) is 15.8% [middle of 4 runs]. Also, the viability, T/C (compound 3.16 µM) was 17.8% [middle of 4 runs]. Also, the viability, T/C (compound 10 µM) was 20.8% [middle of 4 runs].
Regarding `CC(C)NCC(C(=O)N1CCN(c2ncnc3c2C(C)CC3O)CC1)c1ccc(Cl)cc1` (stereo not drawn), the IC50 is above 10000 nM. Besides, the viability, T/C (compound 0.1 µM) is 101% [middle of 4 runs]. For the same molecule, the viability, T/C (compound 0.316 µM) is 104% [middle of 4 runs]. Besides, the viability, T/C (compound 1 µM) was 93.2% [middle of 4 runs]. For the same molecule, the viability, T/C (compound 3.16 µM) was 78.1% [middle of 4 runs]. Further, the viability, T/C (compound 10 µM) is 58.9% [middle of 4 runs].
`CC(Nc1ccc2c(c1)OCCn1cc(N3C(=O)OCC3C(F)F)nc1-2)C(N)=O` (stereo not drawn): the IC50 was above 10000 nM. For the same molecule, the viability, T/C (compound 0.0316 µM) was 101% [middle of 4 runs]. Moreover, the viability, T/C (compound 0.1 µM) is 90.6% [middle of 4 runs]. The viability, T/C (compound 0.316 µM) was 102% [middle of 4 runs]. Moreover, the viability, T/C (compound 1 µM) is 91.9% [middle of 4 runs]. For the same molecule, where the note is “compound 3.16 µM”, the viability, T/C is 95.3% [middle of 4 runs]. The viability, T/C (compound 10 µM) is 70.9% [middle of 4 runs].
On to `CC1(O)CCCC1n1c(=O)c(C(F)F)cc2cnc(NC3CCN(S(C)(=O)=O)CC3)nc21` (stereo not drawn), for which the IC50 is 232 nM and 169 nM and 149 nM. In addition, the viability, T/C (compound 0.0316 µM) is 93.3% and 97.5% and 83.3%. For the same molecule, the viability, T/C (compound 0.1 µM) was 58.4% and 53.8% and 49.8%. The viability, T/C (compound 0.316 µM) was 42.2% (2×) and 39.9%. Further, the viability, T/C (compound 1 µM) was 45.2% and 35.5% and 38.7%. In addition, the viability, T/C (compound 3.16 µM) was 41% and 30.3% and 45.7%. In addition, the viability, T/C (compound 10 µM) is 21.5% and 15.1% and 17.7%.
As for `CCC(CC)c1cc(NC2CCC(N)C2)n2nccc2n1` (stereo not drawn), the IC50 was 1.04 µM [middle of 4 runs]. Further, under “compound 0.0316 µM”, the viability, T/C was 113% [middle of 4 runs]. Also, where the note is “compound 0.1 µM”, the viability, T/C is 99.5% [middle of 4 runs]. For the setting “compound 0.316 µM”, the viability, T/C is 97.5% [middle of 4 runs]. Moreover, where the note is “compound 3.16 µM”, the viability, T/C is 1.39% [middle of 4 runs]. In addition, the viability, T/C (compound 10 µM) was 0.28% [middle of 4 runs].
With `CCN1CCN(Cc2ccc(Nc3ncc(F)c(-c4cc(F)c5nc(C)n(C(C)C)c5c4)n3)nc2)CC1`, the IC50 was 444 nM and 323 nM and 370 nM. Further, the viability, T/C (compound 0.00316 µM) is 112% and 130% and 92.5%. Moreover, the viability, T/C (compound 0.01 µM) is 92% (2×) and 103%. For the same molecule, under “compound 0.0316 µM”, the viability, T/C was 97.3% and 96% and 83%. Where the note is “compound 0.1 µM”, the viability, T/C was 73.1% and 62.7% and 65.1%. For the setting “compound 0.316 µM”, the viability, T/C is 51.2% and 51.1% and 55.3%. Also, under “compound 1 µM”, the viability, T/C was 44.4% and 36% and 33.4%.
Regarding `C[C@@H](NC(=O)c1ncnc(N)c1Cl)c1ncc(C(=O)Nc2cc(C(F)(F)F)c(Cl)cn2)s1`, the viability, T/C runs as follows: (compound 0.1 µM) 122% [middle of 4 runs]; (compound 1 µM) 81.2% [middle of 4 runs]; (compound 10 µM) 36.8% [middle of 4 runs].
In the case of `Cc1nc(N2CCC3(CC2)COC(C)C3N)c(CO)nc1Sc1ccnc(N)c1Cl` (stereo not drawn), the IC50 is above 10000 nM. In addition, the viability, T/C (compound 0.0316 µM) is 100% [middle of 4 runs]. Further, the viability, T/C (compound 0.1 µM) is 89.5% [middle of 4 runs]. Under “compound 0.316 µM”, the viability, T/C was 101% [middle of 4 runs]. The viability, T/C (compound 1 µM) was 95.5% [middle of 4 runs]. Further, where the note is “compound 3.16 µM”, the viability, T/C was 99.2% [middle of 4 runs]. The viability, T/C (compound 10 µM) was 93.4% [middle of 4 runs].
As for `NC1c2ccccc2OC12CCN(c1cnc3c(N4CCCc5ncccc54)n[nH]c3n1)CC2` (stereo not drawn), the IC50 is > 10000 nM and 9390 nM. In addition, the viability, T/C (compound 0.0316 µM) was 98.9% [middle of 4 runs]. Besides, the viability, T/C (compound 0.1 µM) is 88.9% [middle of 4 runs]. Besides, the viability, T/C (compound 0.316 µM) is 97.4% [middle of 4 runs]. Under “compound 1 µM”, the viability, T/C is 87% [middle of 4 runs]. Where the note is “compound 3.16 µM”, the viability, T/C is 94.4% [middle of 4 runs].
Turning to `Nc1ccn(C2OC(CO)C(O)C2(F)F)c(=O)n1` (stereo not drawn), the IC50 was 7.17 nM [middle of 4 runs]. Moreover, the viability, T/C (compound 0.01 µM) is 30.2% [middle of 4 runs]. Also, the viability, T/C (compound 0.0316 µM) was 6.09% [middle of 4 runs]. Besides, the viability, T/C (compound 0.1 µM) was 4.85% [middle of 4 runs]. For the same molecule, the viability, T/C (compound 0.316 µM) is 4.59% [middle of 4 runs]. Besides, the viability, T/C (compound 1 µM) was 4.83% [middle of 4 runs].
